According to US4945098A, “Novel propane-1,3-diol derivatives and use” (Leo Pharmaceutical Products Ltd. A/S (Lovens Kemiske Fabrik, priority 1985, dated 1990):

Experiment: hygroscopicity
Format: physicochemical
Details: crystals from acetone/ether, monohydrate

Q: For C=C(COC(=O)CCCCCC[n+]1ccsc1)COC(=O)NCCCCCCCCCCCCCCCCCC [Example 46, 1-Octadecylaminocarbonyloxy-3-[7-(3-thiazolio)heptanoyloxy]-2-methylenepropane bromide], which hygroscopicity is on record?
A: Hygroscopic
